From patent publication US10648012B2, “Assay for inhibitors of equilibrative or concentrative nucleoside transporters” (ALBERT EINSTEIN COLLEGE OF MEDICINE OF YESHIVA UNIVERSITY, priority 2013, dated 2020)
Where two headings read alike, the source gives them in different places.

Tests used:
PfENT1 [1] = biological target: T1, PfENT1 (Plasmodium falciparum, UniProt Q8IDM6); details: cited from earlier work
T1 sequence (Q8IDM6 1-422): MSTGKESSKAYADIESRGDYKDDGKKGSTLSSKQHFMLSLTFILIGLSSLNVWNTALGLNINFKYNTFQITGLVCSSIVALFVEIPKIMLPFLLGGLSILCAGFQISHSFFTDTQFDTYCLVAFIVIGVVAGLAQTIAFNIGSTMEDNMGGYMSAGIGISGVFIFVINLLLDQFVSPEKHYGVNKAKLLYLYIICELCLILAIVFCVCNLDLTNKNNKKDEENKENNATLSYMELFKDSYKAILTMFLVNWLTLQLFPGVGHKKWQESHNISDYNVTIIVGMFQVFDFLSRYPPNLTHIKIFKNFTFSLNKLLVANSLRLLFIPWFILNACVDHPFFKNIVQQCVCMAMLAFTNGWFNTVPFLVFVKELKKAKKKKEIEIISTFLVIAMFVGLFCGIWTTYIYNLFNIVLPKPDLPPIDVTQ

PfENT1 [2] = biological target: T1, PfENT1; assay: Inhibition of [3H]-adenine uptake by PfENT1-expressing Xenopus oocytes; assay type: cell-based; details: increasing concentrations of 5-FUrd
[3] = system: PfENT1-expressing fui1Δ yeast; assay: 5-FUrd cytotoxicity assay, growth (OD600) of PfENT1-expressing fui1Δ yeast; assay type: cell-based; details: Saccharomyces cerevisiae, 9.5 h
Method: (§1) Concentration dependence of 5-FUrd cytotoxic effects on PfENT1-expressing fui1Δ S. cerevisiae and on the parental fui1Δ strain: To determine the dose-response relationship for killing by 5 FUrd, 200 μl cultures in rich media (yeast extract, peptone, 2% dextrose, YPD) were inoculated with 3×10^6 cells/ml of PfENT1-expressing fui1Δ yeast and fui1Δ yeast. The cultures were grown in 96-well microtiter plates at 30° C., without shaking, in the absence of and in the presence of increasing concentrations of 5-FUrd (range 0.1-1,000 μM). After 570 minutes, the OD600 was measured using a BioRad Benchmark Plus microplate reader to determine the extent of cell growth. The OD600 was plotted as a function of drug concentration and the IC50 for 5-FUrd was calculated (FIG. 2). […] Though yeast grow optimally with constant aeration, a similar 5-FUrd IC50 was obtained for PfENT1-expressing fui1Δ yeast whether the plate was shaken continuously at 200 rpm or unshaken for 570 minutes of growth (IC50=9 μM).

WT yeast = assay: 5-FUrd IC50 on WT yeast after storage of the 5-FUrd sample; assay type: cell-based; details: Saccharomyces cerevisiae, 90 h
Method: as §1
5-FUrd Stability. Stability of 5-FUrd under the assay conditions is essential. The assay will involve yeast growth in the presence of 5-FUrd for 10-16 hrs at 30° C. To test 5-FUrd stability a sample of 5-FUrd was split into two aliquots. One was stored at −20° C. and the other at 30° C. for 90 hrs. The 5-FUrd IC50 was then determined for WT yeast as described above. […]

[4] = 5-FUrd stability under the assay growth conditions; assay type: physicochemical; details: 30° C.
Method: 5-FUrd Stability. Stability of 5-FUrd under the assay conditions is essential. The assay will involve yeast growth in the presence of 5-FUrd for 10-16 hrs at 30° C. To test 5-FUrd stability a sample of 5-FUrd was split into two aliquots. One was stored at −20° C. and the other at 30° C. for 90 hrs. The 5-FUrd IC50 was then determined for WT yeast as described above. […] Thus, 5-FUrd is stable under the assay growth conditions for at least 90 hrs. The assay should only require 10-16 hrs of growth, so 5-FUrd is stable on the timescale of the assay.

fui1Δ yeast = assay: 5-FUrd cytotoxicity assay, growth (OD600) of parental fui1Δ yeast; assay type: cell-based; details: Saccharomyces cerevisiae, 9.5 h, read-out: 5-FUrd IC50 for killing
Method: as §1

COc1cc(C(=O)OCCCN2CCCN(CCCOC(=O)c3cc(OC)c(OC)c(OC)c3)CC2)cc(OC)c1OC [dilazep]
inhibition of PfENT1 (PfENT1 [1]): do not inhibit

O=c1[nH]c(=O)n([C@@H]2O[C@H](CO)[C@@H](O)[C@H]2O)cc1F [5-FUrd, 5-fluorouridine]
Ki (PfENT1 [2]): 1.1 mM | IC50 ([3]; read-out: 5-FUrd IC50, shaken versus unshaken comparison): 9 µM | IC50 ([3]; read-out: 5-FUrd IC50 for killing): 12 µM | IC50 (WT yeast; 5-FUrd sample stored at 30° C. for 90 hrs, n=3): 60 ± 3 µM | IC50 (WT yeast; 5-FUrd sample stored at −20° C. for 90 hrs): 46 ± 2 µM | time stable under the assay growth conditions [4]: at least 90 hrs | IC50 (fui1Δ yeast): 6.4 mM

O=[N+]([O-])c1ccc(CSc2ncnc3c2ncn3[C@@H]2O[C@H](CO)[C@@H](O)[C@H]2O)cc1 [p-nitrobenzylthioinosine]
inhibition of PfENT1 (PfENT1 [1]): do not inhibit

OCCN(CCO)c1nc(N2CCCCC2)c2nc(N(CCO)CCO)nc(N3CCCCC3)c2n1 [dipyridamole]
inhibition of PfENT1 (PfENT1 [1]): do not inhibit
